The Kd is a measure of binding affinity in units of concentration.

Where two headings read alike, the source gives them in different places.

Assay [1] concerns the target T1, Human recombinant neuroligin 4-X linked (NLGN4X) (Homo sapiens, UniProt Q8N0W4). The assay can be described thus: Microscale thermophoresis (MST) assay. The format is binding.
For assay [2], the target named is T1, Human recombinant neuroligin 4-X linked (NLGN4X). The assay can be described thus: biochemical. The format is binding. To be noted: for Kd: read-out: dissociation constant (kD).
The target of assay [3] is T2, human recombinant acetylcholinesterase (AChE) (Homo sapiens, UniProt P22303).
T2 construct: purchased Sigma Aldrich (Milano, Italy)
The assay can be described thus: Microscale thermophoresis (MST) assay. The assay is classed as binding. (In general: MST reads how a fluorescent partner responds to local heating, with and without ligand.)

In assay [4] the target is T2, human recombinant acetylcholinesterase (AChE). Put plainly: Fluorescence steady-state binding experiments (intrinsic Trp fluorescence). To be noted: pH 7.4.

T2 sequence (P22303 32-614): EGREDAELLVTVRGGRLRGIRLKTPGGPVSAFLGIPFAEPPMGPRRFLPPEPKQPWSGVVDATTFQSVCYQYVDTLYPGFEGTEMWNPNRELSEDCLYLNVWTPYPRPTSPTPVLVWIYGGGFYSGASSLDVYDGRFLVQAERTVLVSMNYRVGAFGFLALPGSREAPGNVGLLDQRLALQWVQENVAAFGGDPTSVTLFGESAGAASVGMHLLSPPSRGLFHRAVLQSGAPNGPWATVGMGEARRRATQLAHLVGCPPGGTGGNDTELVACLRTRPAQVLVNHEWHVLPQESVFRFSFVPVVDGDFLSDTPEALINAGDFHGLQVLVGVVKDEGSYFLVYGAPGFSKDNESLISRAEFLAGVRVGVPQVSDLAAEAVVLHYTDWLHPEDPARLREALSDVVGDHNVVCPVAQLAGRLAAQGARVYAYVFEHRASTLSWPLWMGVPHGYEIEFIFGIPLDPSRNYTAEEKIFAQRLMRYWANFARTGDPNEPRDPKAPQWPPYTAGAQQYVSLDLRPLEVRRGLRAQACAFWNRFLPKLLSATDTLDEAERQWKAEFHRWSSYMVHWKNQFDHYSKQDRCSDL
T1 sequence (Q8N0W4 42-676 limits assumed): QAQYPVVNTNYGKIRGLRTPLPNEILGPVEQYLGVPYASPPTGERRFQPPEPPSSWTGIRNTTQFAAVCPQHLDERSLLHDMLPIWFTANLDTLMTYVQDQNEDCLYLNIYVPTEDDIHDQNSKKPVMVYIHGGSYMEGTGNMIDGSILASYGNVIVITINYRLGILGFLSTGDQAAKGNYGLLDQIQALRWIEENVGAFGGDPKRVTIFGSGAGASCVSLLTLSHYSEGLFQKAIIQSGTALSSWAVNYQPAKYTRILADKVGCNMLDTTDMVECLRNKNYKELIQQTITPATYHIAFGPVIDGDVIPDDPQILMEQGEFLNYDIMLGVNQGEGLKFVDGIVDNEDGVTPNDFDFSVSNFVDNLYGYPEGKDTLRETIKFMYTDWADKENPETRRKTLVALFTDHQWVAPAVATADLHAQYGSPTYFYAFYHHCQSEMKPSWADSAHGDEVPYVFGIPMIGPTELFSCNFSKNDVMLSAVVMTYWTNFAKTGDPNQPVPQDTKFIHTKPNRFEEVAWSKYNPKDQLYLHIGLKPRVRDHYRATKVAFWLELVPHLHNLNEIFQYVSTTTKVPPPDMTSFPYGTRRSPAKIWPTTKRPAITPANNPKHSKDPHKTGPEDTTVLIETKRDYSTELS

`COc1cc2c(c3oc(=O)c4c(c13)CCC4=O)[C@@H]1CCO[C@@H]1O2` [Aflatoxin B2, aflatoxin B2]: the Kd turned out to be 56.6 nM in assay [1] (pH 7.4, read-out: kD for the binding site at higher affinity) and 10.3 nM in assay [2] (pH 7.4). In assay [2] (pH 7.4), the “quenching / decrease of the protein fluorescence emission intensity” value (from here on “quenching / decrease”) was “about 11%”. Besides, the “interaction with the protein in MST” value in assay [3] is on record as “did not confirm this prediction”.

As to `CC1=C[C@H]2O[C@@H]3[C@H](O)C[C@](C)([C@@]2(CO)[C@H](O)C1=O)[C@]31CO1` [Deoxynivalenol, deoxynivalenol], in assay [2] (pH 7.4), the “quenching / decrease” value turned out to be 17%.

Regarding `CN1C(=O)[C@]23CC4=CC=C[C@H](O)[C@H]4N2C(=O)[C@@]1(CO)SS3` [Gliotoxin, gliotoxin], the Kd in assay [1] (MST, PBS buffer pH 7.4, 25 °C, read-out: kD) came to 1520 nM; in assay [2] (Trp fluorescence emission variation, PBS buffer pH 7.4, 25 °C, non-linear regression), 307 nM. In assay [2] (pH 7.4), the “quenching / decrease” value is listed as “about 17%”. The “interaction with the protein in MST” value in assay [3] (result in words, data not shown) is listed as “did not confirm this prediction”.

With Aflatoxin B1, the “interaction with the protein in MST” value in assay [1] (pH 7.4) is listed as “no evidence of the interaction”. Also, in assay [4], the “effect on Trp fluorescence emission at increasing toxin concentration” value was “a quenching effect was registered”. In assay [2], the “decrease of the fluorescence emission spectrum at increasing concentrations of the toxin” value was “did not show a significant decrease”. Also, the Kd in assay [3] (pH 8) came to 8400 ± 694 nM.
